Measured values from patent US10131657B2, “Bromodomain inhibitors” (AbbVie Inc., priority 2013, dated 2018).

Each compound was assayed on breast cancer cell line MX-1 (assay: MX-1 cell line proliferation assay, Method A). Details: Homo sapiens, MX1; MX-1 cells, 96-well, 72 hours, Cell Titer Glo; read-out: Cellular proliferation: EC50 Method A.
Assay type: cell-based
Description: The impact of compounds of the Examples on cancer cell proliferation was determined using the breast cancer cell line MX-1 (ATCC) in a 3-day proliferation assay and the data are reported in Table 1.
MX-1 cells were maintained in RPMI 1640 medium (Sigma) supplemented with 10% FBS at 37° C. and an atmosphere of 5% CO2. For compound testing, MX-1 cells were plated in 96-well black bottom plates at a density of 5000 cells/well in 90 μL of culture media and incubated at 370 overnight to allow cell adhesion and spreading. Compound dilution series were prepared in DMSO via a 3-fold serial dilution from 3 mM to 0.1 μM. The DMSO dilution series were then diluted 1:100 in phosphate buffered saline, and 10 μL of the resulted solution were added to the appropriate wells of the MX-1 cell plate. The final compound concentrations in the wells were 3, 1, 0.3, 0.1, 0.03, 0.01, 0.003, 0.001, 0.0003 and 0.0001 μM.
Luminescence readings from the Cell Titer Glo assay were normalized to the DMSO treated cells and analyzed using the GraphPad Prism software with sigmoidal curve fitting to obtain ECs50s. The minimum significant ratio (MSR) was determined to evaluate assay reproducibility (Eastwood et al., (2006) J Biomol Screen, 11: 253-261).

| EC50 [nM] | SMILES |
| --- | --- |
| > 1000 | Cn1cc(-c2cc(S(C)(=O)=O)ccc2Oc2cccc(C(=O)N3CCC(N4CCCC4)CC3)c2)c2cc[nH]c2c1=O [Example 24, 6-methyl-4-[5-(methylsulfonyl)-2-(3-{[4-(pyrrolidin-1-yl)piperidin-1-yl]carbonyl}phenoxy)phenyl]-1,6-dihydro-7H-pyrrolo[2,3-c]pyridin-7-one] |
| 134 | Cn1cc(-c2cc(S(C)(=O)=O)ccc2Oc2cccc(C(=O)NC3CCCCC3)c2)c2cc[nH]c2c1=O [Example 25, N-cyclohexyl-3-[2-(6-methyl-7-oxo-6,7-dihydro-1H-pyrrolo[2,3-c]pyridin-4-yl)-4-(methylsulfonyl)phenoxy]benzamide] |
| 442 | Cn1cc(-c2cc(S(C)(=O)=O)ccc2Oc2cccc(C(=O)NCCCN3CCCC3=O)c2)c2cc[nH]c2c1=O [Example 27, 3-[2-(6-methyl-7-oxo-6,7-dihydro-1H-pyrrolo[2,3-c]pyridin-4-yl)-4-(methylsulfonyl)phenoxy]-N-[3-(2-oxopyrrolidin-1-yl)propyl]benzamide] |
| 195 | Cn1cc(-c2cc(S(C)(=O)=O)ccc2Oc2cccc(C(=O)N3CCN(C4CCCC4)CC3)c2)c2cc[nH]c2c1=O [Example 28, 4-[2-{3-[(4-cyclopentylpiperazin-1-yl)carbonyl]phenoxy}-5-(methylsulfonyl)phenyl]-6-methyl-1,6-dihydro-7H-pyrrolo[2,3-c]pyridin-7-one] |
| > 1000 | CN(C)CCN1CCN(C(=O)c2cccc(Oc3ccc(S(C)(=O)=O)cc3-c3cn(C)c(=O)c4[nH]ccc34)c2)CC1 [Example 29, 4-{2-[3-({4-[2-(dimethylamino)ethyl]piperazin-1-yl}carbonyl)phenoxy]-5-(methylsulfonyl)phenyl}-6-methyl-1,6-dihydro-7H-pyrrolo[2,3-c]pyridin-7-one] |
| > 1000 | CC(=O)N1CCN(C(=O)c2cccc(Oc3ccc(S(C)(=O)=O)cc3-c3cn(C)c(=O)c4[nH]ccc34)c2)CC1 [Example 30, 4-[2-{3-[(4-acetylpiperazin-1-yl)carbonyl]phenoxy}-5-(methylsulfonyl)phenyl]-6-methyl-1,6-dihydro-7H-pyrrolo[2,3-c]pyridin-7-one] |
| 443 | Cn1cc(-c2cc(S(C)(=O)=O)ccc2Oc2cccc(C(=O)N3CCC(C(F)(F)F)CC3)c2)c2cc[nH]c2c1=O [Example 31, 6-methyl-4-[5-(methylsulfonyl)-2-(3-{[4-(trifluoromethyl)piperidin-1-yl]carbonyl}phenoxy)phenyl]-1,6-dihydro-7H-pyrrolo[2,3-c]pyridin-7-one] |
| > 1000 | CN(C)CCNC(=O)c1cccc(Oc2ccc(S(C)(=O)=O)cc2-c2cn(C)c(=O)c3[nH]ccc23)c1 [Example 33, N-[2-(dimethylamino)ethyl]-3-[2-(6-methyl-7-oxo-6,7-dihydro-1H-pyrrolo[2,3-c]pyridin-4-yl)-4-(methylsulfonyl)phenoxy]benzamide] |
| 155 | Cn1cc(-c2cc(S(C)(=O)=O)ccc2Oc2cccc(C(=O)NC[C@H]3CCCO3)c2)c2cc[nH]c2c1=O [Example 34, 3-[2-(6-methyl-7-oxo-6,7-dihydro-1H-pyrrolo[2,3-c]pyridin-4-yl)-4-(methylsulfonyl)phenoxy]-N-[(2R)-tetrahydrofuran-2-ylmethyl]benzamide] |
| 406 | Cn1cc(-c2cc(S(C)(=O)=O)ccc2Oc2cccc(C(=O)NCCN3CCCC3)c2)c2cc[nH]c2c1=O [Example 35, 3-[2-(6-methyl-7-oxo-6,7-dihydro-1H-pyrrolo[2,3-c]pyridin-4-yl)-4-(methylsulfonyl)phenoxy]-N-[2-(pyrrolidin-1-yl)ethyl]benzamide] |
| 255 | Cn1cc(-c2cc(S(C)(=O)=O)ccc2Oc2cccc(C(=O)NCc3cc(F)cc(F)c3)c2)c2cc[nH]c2c1=O [Example 36, N-(3,5-difluorobenzyl)-3-[2-(6-methyl-7-oxo-6,7-dihydro-1H-pyrrolo[2,3-c]pyridin-4-yl)-4-(methylsulfonyl)phenoxy]benzamide] |
| 103 | Cn1cc(-c2cc(S(C)(=O)=O)ccc2Oc2cccc(NS(=O)(=O)Cc3ccccc3)c2)c2cc[nH]c2c1=O [Example 38, N-{3-[2-(6-methyl-7-oxo-6,7-dihydro-1H-pyrrolo[2,3-c]pyridin-4-yl)-4-(methylsulfonyl)phenoxy]phenyl}-1-phenylmethanesulfonamide] |
| 97.4 | COc1ccc(S(=O)(=O)Nc2cccc(Oc3ccc(S(C)(=O)=O)cc3-c3cn(C)c(=O)c4[nH]ccc34)c2)cc1 [Example 39, 4-methoxy-N-{3-[2-(6-methyl-7-oxo-6,7-dihydro-1H-pyrrolo[2,3-c]pyridin-4-yl)-4-(methylsulfonyl)phenoxy]phenyl}benzenesulfonamide] |
| 143 | Cn1cc(-c2cc(S(C)(=O)=O)ccc2Oc2cccc(NS(=O)(=O)c3cccc(F)c3)c2)c2cc[nH]c2c1=O [Example 40, 3-fluoro-N-{3-[2-(6-methyl-7-oxo-6,7-dihydro-1H-pyrrolo[2,3-c]pyridin-4-yl)-4-(methylsulfonyl)phenoxy]phenyl}benzenesulfonamide] |
| 157 | COc1cccc(S(=O)(=O)Nc2cccc(Oc3ccc(S(C)(=O)=O)cc3-c3cn(C)c(=O)c4[nH]ccc34)c2)c1 [Example 42, 3-methoxy-N-{3-[2-(6-methyl-7-oxo-6,7-dihydro-1H-pyrrolo[2,3-c]pyridin-4-yl)-4-(methylsulfonyl)phenoxy]phenyl}benzenesulfonamide] |
| 451 | Cn1cc(-c2cc(S(C)(=O)=O)ccc2Oc2cccc(NS(=O)(=O)c3ccc([N+](=O)[O-])cc3)c2)c2cc[nH]c2c1=O [Example 43, N-{3-[2-(6-methyl-7-oxo-6,7-dihydro-1H-pyrrolo[2,3-c]pyridin-4-yl)-4-(methylsulfonyl)phenoxy]phenyl}-4-nitrobenzenesulfonamide] |
| 391 | CC(=O)c1ccc(S(=O)(=O)Nc2cccc(Oc3ccc(S(C)(=O)=O)cc3-c3cn(C)c(=O)c4[nH]ccc34)c2)cc1 [Example 44, 4-acetyl-N-{3-[2-(6-methyl-7-oxo-6,7-dihydro-1H-pyrrolo[2,3-c]pyridin-4-yl)-4-(methylsulfonyl)phenoxy]phenyl}benzenesulfonamide] |
| 43.1 | CC(C)c1ccc(S(=O)(=O)Nc2cccc(Oc3ccc(S(C)(=O)=O)cc3-c3cn(C)c(=O)c4[nH]ccc34)c2)cc1 [Example 46, N-{3-[2-(6-methyl-7-oxo-6,7-dihydro-1H-pyrrolo[2,3-c]pyridin-4-yl)-4-(methylsulfonyl)phenoxy]phenyl}-4-(propan-2-yl)benzenesulfonamide] |
| 172 | Cn1cc(-c2cc(S(C)(=O)=O)ccc2Oc2cccc(NS(=O)(=O)c3cccc(OC(F)F)c3)c2)c2cc[nH]c2c1=O [Example 48, 3-(difluoromethoxy)-N-{3-[2-(6-methyl-7-oxo-6,7-dihydro-1H-pyrrolo[2,3-c]pyridin-4-yl)-4-(methylsulfonyl)phenoxy]phenyl}benzenesulfonamide] |
| 73.8 | Cn1cc(-c2cc(S(C)(=O)=O)ccc2Oc2cccc(NS(=O)(=O)C3CC3)c2)c2cc[nH]c2c1=O [Example 49, N-{3-[2-(6-methyl-7-oxo-6,7-dihydro-1H-pyrrolo[2,3-c]pyridin-4-yl)-4-(methylsulfonyl)phenoxy]phenyl}cyclopropanesulfonamide] |
| 40.5 | Cc1cccc(S(=O)(=O)Nc2cccc(Oc3ccc(S(C)(=O)=O)cc3-c3cn(C)c(=O)c4[nH]ccc34)c2)c1 [Example 50, 3-methyl-N-{3-[2-(6-methyl-7-oxo-6,7-dihydro-1H-pyrrolo[2,3-c]pyridin-4-yl)-4-(methylsulfonyl)phenoxy]phenyl}benzenesulfonamide] |
| > 1000 | Cn1cc(-c2cc(S(C)(=O)=O)ccc2Oc2cccc(NS(=O)(=O)c3cccc([N+](=O)[O-])c3)c2)c2cc[nH]c2c1=O [Example 51, N-{3-[2-(6-methyl-7-oxo-6,7-dihydro-1H-pyrrolo[2,3-c]pyridin-4-yl)-4-(methylsulfonyl)phenoxy]phenyl}-3-nitrobenzenesulfonamide] |
| 38.6 | Cc1cc(F)ccc1S(=O)(=O)Nc1cccc(Oc2ccc(S(C)(=O)=O)cc2-c2cn(C)c(=O)c3[nH]ccc23)c1 [Example 52, 4-fluoro-2-methyl-N-{3-[2-(6-methyl-7-oxo-6,7-dihydro-1H-pyrrolo[2,3-c]pyridin-4-yl)-4-(methylsulfonyl)phenoxy]phenyl}benzenesulfonamide] |
| > 1000 | Cn1cc(-c2cc(S(C)(=O)=O)ccc2Oc2cccc(NS(=O)(=O)c3ccc(S(C)(=O)=O)cc3)c2)c2cc[nH]c2c1=O [Example 54, N-{3-[2-(6-methyl-7-oxo-6,7-dihydro-1H-pyrrolo[2,3-c]pyridin-4-yl)-4-(methylsulfonyl)phenoxy]phenyl}-4-(methylsulfonyl)benzenesulfonamide] |
| 393 | Cn1cc(-c2cc(S(C)(=O)=O)ccc2Oc2cccc(NS(=O)(=O)c3ccccc3C#N)c2)c2cc[nH]c2c1=O [Example 55, 2-cyano-N-{3-[2-(6-methyl-7-oxo-6,7-dihydro-1H-pyrrolo[2,3-c]pyridin-4-yl)-4-(methylsulfonyl)phenoxy]phenyl}benzenesulfonamide] |
| > 1000 | Cn1cc(-c2cc(S(C)(=O)=O)ccc2Oc2cccc(NS(=O)(=O)c3cccc(C#N)c3)c2)c2cc[nH]c2c1=O [Example 57, 3-cyano-N-{3-[2-(6-methyl-7-oxo-6,7-dihydro-1H-pyrrolo[2,3-c]pyridin-4-yl)-4-(methylsulfonyl)phenoxy]phenyl}benzenesulfonamide] |
